# Earlier results, collected in patent publication US20060165781A1, “Orally disintegrating tablets and process for obtaining them” (priority 2002, published 2006).
# Conditions: 5 g in 150 mL of water at 20° C.
structure (smiles),measurement,value
"OC[C@@H](O)[C@@H](O)[C@H](O)[C@H](O)CO [Spray-dried mannitol, mannitol]",Time to dissolve in water,approximately 5 s
